Assay results taken from patent US20090099074A1, “MODULATING FOOD INTAKE” (CONJUCHEM BIOTECHNOLOGIES INC., priority 2007, published 2009).

System: Male Wistar rats
Experiment: Refeeding after 24 h fast, subcutaneous injection, sham operated or AP-SFO lesioned rats
Type: in vivo, rat
Experimental: Male Wistar rats were either sham operated or subjected to electrolytic lesions of the AP, SFO or both. Two weeks were allowed for recovery after surgeries while body weight, food and water intake were measured daily. Then rats, which were fasted for 24 hours, were subcutaneously injected with anorexigenic doses of PYY-HAS, PYY or saline (for controls) following which free access to food was reallowed. Food and water intake were measured for 24 hours following drug injections. […] However, the anorexigenic effect of both peptides was delayed in AP-SFO-lesioned rats, 1 hour in PYY treated rats and 2 hours in PYY-HAS treated rats.

Q: For PYY, which “delay of anorexigenic effect in AP-SFO-lesioned rats” value (AP-SFO-lesioned rats) is on record?
A: 1 h

Q: And the “body weight gain after food deprivation” value (after 24 hours fast)?
A: did not

Q: What about the “persistence of anorexigenic effect during refeeding” value (after 24 hours fast) of the same substance?
A: only during the first two hours of refeeding

Q: And the “time of maximum anorexigenic effect” value (after 24 hours fast)?
A: 1 h
